Biological target: T1, RANK (Mus musculus, UniProt O35305)
T1 construct: gene Tnfrsf11a; extracellular segment of RANK (amino acid 26–210), His-RANK fusion expressed in E. coli
T1 sequence (O35305 26-210): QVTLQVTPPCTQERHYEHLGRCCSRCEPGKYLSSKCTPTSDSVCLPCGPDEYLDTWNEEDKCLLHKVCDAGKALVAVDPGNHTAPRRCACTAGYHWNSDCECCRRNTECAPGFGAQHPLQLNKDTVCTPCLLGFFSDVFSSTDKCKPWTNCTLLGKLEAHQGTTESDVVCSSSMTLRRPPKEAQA
Experiment: SPR on immobilized RANK; supported by CETSA in RAW264.[…] cells
Format: binding

Kd: 945 µM
SMILES: O=C(Nc1ccc(N2CCCCC2)cc1)c1ccccc1O [IMB-R38, 2-hydroxy-N-(4-(piperidin-1-yl)phenyl)benzamide]

From article PMC12733451, “A Novel RANKL/RANK Inhibitor IMB-R38 Inhibits Osteoporosis Through Regulating Bone Metabolism” (International Journal of Molecular Sciences, 2025)
